Assay results from US12209102B2, “Heterocyclic compounds and uses thereof” (Kumquat Biosciences Inc., priority 2022, dated 2025).

Key:
K-Ras G12S = biological target: T1, K-Ras G12S (Homo sapiens, UniProt P01116, G12S); assay: HTRF resonance energy transfer assay, K-Ras G12S / SOS1 interaction; format: biochemical; conditions: HTRF assay of Example 5; read-out: IC50 against K-Ras G12S
T1 construct: made in house; host or cells: E. coli BL21 (DE3)
Method in brief: (§1)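 Buffer about 5 mM HEPES pH 7.4 with ~150 mM NaCl, ~1 mM DTT, 0.05% BSA, 0.0025% (v/v) Igepal. Protein constructs used at molarity matching the IC50 range studied (e.g. ~500 nM). FRET between tagged K-Ras and hSOS1 measured after short incubation.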

K-Ras G12D = biological target: T2, K-Ras G12D (Homo sapiens, UniProt P01116, G12D); assay: HTRF resonance energy transfer assay, K-Ras G12D / SOS1 interaction; format: biochemical; conditions: HTRF assay of Example 5; read-out: IC50 against K-Ras G12D
T2 construct: made in house; host or cells: E. coli BL21 (DE3)
Method in brief: as §1

SW620 cells = assay: Ras cellular assay, growth of cells with K-Ras G12V mutation (CellTiter-Glo); format: cell-based; conditions: Homo sapiens, SW-620; cell growth, Example 9, G12V mutation; read-out: IC50 against SW620 cells
Method in brief: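 IC50 values came from a four-parameter fit of CellTiter-Glo viability, read roughly 6 days after dosing with e.g. a 10-point threefold dilution series. G12V-mutant SW620 cells (e.g. 800 per well) had been plated the previous day in RPMI-1640/10% heat-inactivated FBS, on tissue culture-treated or ultra-low attachment plates.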

K-Ras G12V = biological target: T3, K-Ras G12V (Homo sapiens, UniProt P01116, G12V); assay: HTRF resonance energy transfer assay, K-Ras G12V / SOS1 interaction; format: biochemical; conditions: HTRF assay of Example 5; read-out: IC50 against K-Ras G12V
T3 construct: made in house; host or cells: E. coli BL21 (DE3)
Method in brief: as §1

A549 cells = assay: Ras cellular assay, growth of cells with K-Ras G12S mutation (CellTiter-Glo); format: cell-based; conditions: Homo sapiens, cell growth, Example 9, G12S mutation, read-out: IC50 against A549 cells
Method in brief: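 Growth inhibition IC50 values come from four-parameter fits of CellTiter-Glo luminescence, read about 6 days after compound addition. G12S-mutant A549 cells (e.g. 800/well, RPMI-1640 + 10% heat-inactivated FBS) were plated in tissue-culture-treated or ultra-low-attachment 384-well format. Dosing began the following day with serial dilutions, e.g. 10 points, 3-fold.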

K-Ras WT = biological target: T4, K-Ras WT (Homo sapiens, UniProt P01116); assay: HTRF resonance energy transfer assay, K-Ras WT / SOS1 interaction; format: biochemical; conditions: HTRF assay of Example 5; read-out: IC50 against K-Ras WT
T4 construct: made in house; host or cells: E. coli BL21 (DE3)
Method in brief: as §1

T1 sequence (P01116 1-188 isoform P01116-2 G12S): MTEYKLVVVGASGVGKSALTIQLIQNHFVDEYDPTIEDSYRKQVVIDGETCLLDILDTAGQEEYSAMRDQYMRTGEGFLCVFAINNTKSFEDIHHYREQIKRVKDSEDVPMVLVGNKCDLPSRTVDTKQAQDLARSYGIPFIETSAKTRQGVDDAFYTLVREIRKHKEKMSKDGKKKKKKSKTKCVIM
T4 sequence (P01116 1-188 isoform P01116-2): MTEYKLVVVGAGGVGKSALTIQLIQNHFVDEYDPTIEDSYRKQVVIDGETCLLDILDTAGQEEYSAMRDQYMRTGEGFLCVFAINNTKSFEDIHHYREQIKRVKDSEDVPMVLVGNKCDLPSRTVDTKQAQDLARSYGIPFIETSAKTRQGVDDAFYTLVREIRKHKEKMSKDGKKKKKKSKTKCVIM
T3 sequence (P01116 1-188 isoform P01116-2 G12V): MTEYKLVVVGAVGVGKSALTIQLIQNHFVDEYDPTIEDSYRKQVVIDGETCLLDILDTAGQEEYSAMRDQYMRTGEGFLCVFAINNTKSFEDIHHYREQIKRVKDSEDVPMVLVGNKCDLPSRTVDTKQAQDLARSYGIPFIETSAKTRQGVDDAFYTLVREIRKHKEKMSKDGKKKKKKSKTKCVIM
T2 sequence (P01116 1-188 isoform P01116-2 G12D): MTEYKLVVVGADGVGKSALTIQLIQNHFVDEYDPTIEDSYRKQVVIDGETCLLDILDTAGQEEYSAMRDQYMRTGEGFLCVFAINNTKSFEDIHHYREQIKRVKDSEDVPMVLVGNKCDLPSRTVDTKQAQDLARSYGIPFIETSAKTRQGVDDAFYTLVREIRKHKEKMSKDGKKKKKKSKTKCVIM

Row | Structure (SMILES) | IC50 (K-Ras G12S) | IC50 (K-Ras G12D) | IC50 (SW620 cells) | IC50 (K-Ras G12V) | IC50 (A549 cells) | IC50 (K-Ras WT)
1 | C[C@H](Oc1nc2c3c(c(Cl)c(-c4ccc(F)c5sc(N)c(C#N)c45)c(F)c3n1)OCCN2C1CCN(C(=O)c2ccnn2C)CC1)[C@@H]1CCCN1C [Compound 1012, 2-amino-4-(8-chloro-10-fluoro-4-(1-(1-methyl-1H-pyrazole-5-carbonyl)piperidin-4-yl)-2-((S)-1-((S)-1-methylpyrrolidin-2-yl)ethoxy)-5,6-dihydro-4H-[1,4]oxazepino[5,6,7-de]quinazolin-9-yl)-7-fluorobenzo[b]thiophene-3-carbonitrile] | < 100 nM | < 100 nM | < 5000 nM | < 100 nM | < 5000 nM | < 100 nM
2 | COCC1CN(CC(F)F)c2nc(OC[C@@]34CCCN3C[C@H](F)C4)nc3c(F)c(-c4ccc(F)c5sc(N)c(C#N)c45)c(Cl)c(c23)O1 (stereo partly drawn) [Compound 1030, 2-amino-4-(8-chloro-4-(2,2-difluoroethyl)-10-fluoro-2-(((2R,7aS)-2-fluorotetrahydro-1H-pyrrolizin-7a(5H)-yl)methoxy)-6-(methoxymethyl)-5,6-dihydro-4H-[1,4]oxazepino[5,6,7-de]quinazolin-9-yl)-7-fluorobenzo[b]thiophene-3-carbonitrile] | < 100 nM | < 100 nM | < 5000 nM | < 100 nM | < 5000 nM | < 100 nM
3 | N#Cc1c(N)sc2c(F)ccc(-c3c(Cl)c4c5c(nc(OC[C@@]67CCCN6C[C@H](F)C7)nc5c3F)N(C3CC(C#N)C3)CCO4)c12 (stereo partly drawn) [Compound 1043, 2-amino-4-(8-chloro-4-(3-cyanocyclobutyl)-10-fluoro-2-(((2R,7aS)-2-fluorotetrahydro-1H-pyrrolizin-7a(5H)-yl)methoxy)-5,6-dihydro-4H-[1,4]oxazepino[5,6,7-de]quinazolin-9-yl)-7-fluorobenzo[b]thiophene-3-carbonitrile] | < 100 nM | < 100 nM | < 5000 nM | < 100 nM | < 5000 nM | < 100 nM
4 | C[C@H]1CN(C2CC2)c2nc(OC[C@@]34CCCN3C[C@H](F)C4)nc3c(F)c(-c4ccc(F)c5sc(N)c(C#N)c45)c(Cl)c(c23)O1 [Compound 1044, 2-amino-4-((6S)-8-chloro-4-cyclopropyl-10-fluoro-2-(((2R,7aS)-2-fluorotetrahydro-1H-pyrrolizin-7a(5H)-yl)methoxy)-6-methyl-5,6-dihydro-4H-[1,4]oxazepino[5,6,7-de]quinazolin-9-yl)-7-fluorobenzo[b]thiophene-3-carbonitrile] | < 100 nM | < 100 nM | < 5000 nM | < 100 nM | < 5000 nM | < 100 nM
5 | C[C@H]1CN(C2CCN(C(=O)C3CC3C#N)CC2)c2nc(OC[C@@]34CCCN3C[C@H](F)C4)nc3c(F)c(-c4ccc(F)c5sc(N)c(C#N)c45)c(Cl)c(c23)O1 (stereo partly drawn) [Compound 1051, 2-amino-4-((6S)-8-chloro-4-(1-(2-cyanocyclopropane-1-carbonyl)piperidin-4-yl)-10-fluoro-2-(((2R,7aS)-2-fluorotetrahydro-1H-pyrrolizin-7a(5H)-yl)methoxy)-6-methyl-5,6-dihydro-4H-[1,4]oxazepino[5,6,7-de]quinazolin-9-yl)-7-fluorobenzo[b]thiophene-3-carbonitrile] | < 100 nM | < 100 nM | < 5000 nM | < 100 nM | < 5000 nM | < 100 nM
6 | CC(C1CC1)N1CCOc2c(Cl)c(-c3ccc(F)c4sc(N)c(C#N)c34)c(F)c3nc(OC[C@@]45CCCN4C[C@H](F)C5)nc1c23 (stereo partly drawn) [Compound 1054, 2-amino-4-(8-chloro-4-(1-cyclopropylethyl)-10-fluoro-2-(((2R,7aS)-2-fluorotetrahydro-1H-pyrrolizin-7a(5H)-yl)methoxy)-5,6-dihydro-4H-[1,4]oxazepino[5,6,7-de]quinazolin-9-yl)-7-fluorobenzo[b]thiophene-3-carbonitrile] | < 100 nM | < 100 nM | < 5000 nM | < 100 nM | < 5000 nM | < 100 nM
7 | CN(CCN1CCOc2c(Cl)c(-c3ccc(F)c4sc(N)c(C#N)c34)c(F)c3nc(OC[C@@]45CCCN4C[C@H](F)C5)nc1c23)C(=O)C1COC1 [Compound 1058, N-(2-(9-(2-amino-3-cyano-7-fluorobenzo[b]thiophen-4-yl)-8-chloro-10-fluoro-2-(((2R,7aS)-2-fluorotetrahydro-1H-pyrrolizin-7a(5H)-yl)methoxy)-5,6-dihydro-4H-[1,4]oxazepino[5,6,7-de]quinazolin-4-yl)ethyl)-N-methyloxetane-3-carboxamide] | < 100 nM | < 100 nM | < 5000 nM | < 100 nM | < 5000 nM | < 100 nM
8 | N#Cc1c(N)sc2c(F)ccc(-c3c(Cl)c4c5c(nc(OC[C@@]67CCCN6C[C@H](F)C7)nc5c3F)N(CC3CCOCC3)CCO4)c12 [Compound 1067, 2-amino-4-(8-chloro-10-fluoro-2-(((2R,7aS)-2-fluorotetrahydro-1H-pyrrolizin-7a(5H)-yl)methoxy)-4-((tetrahydro-2H-pyran-4-yl)methyl)-5,6-dihydro-4H-[1,4]oxazepino[5,6,7-de]quinazolin-9-yl)-7-fluorobenzo[b]thiophene-3-carbonitrile] | < 100 nM | < 100 nM | < 5000 nM | < 100 nM | < 5000 nM | < 100 nM
9 | CC1(C)CC(N2CCOc3c(Cl)c(-c4ccc(F)c5sc(N)c(C#N)c45)c(F)c4nc(OC[C@@]56CCCN5C[C@H](F)C6)nc2c34)CO1 (stereo partly drawn) [Compound 1071, 2-amino-4-(8-chloro-4-(5,5-dimethyltetrahydrofuran-3-yl)-10-fluoro-2-(((2R,7aS)-2-fluorotetrahydro-1H-pyrrolizin-7a(5H)-yl)methoxy)-5,6-dihydro-4H-[1,4]oxazepino[5,6,7-de]quinazolin-9-yl)-7-fluorobenzo[b]thiophene-3-carbonitrile] | < 100 nM | < 100 nM | < 5000 nM | < 100 nM | < 5000 nM | < 100 nM
10 | N#Cc1c(N)sc2c(F)ccc(-c3c(Cl)c4c5c(nc(OC[C@@]67CCCN6C[C@H](F)C7)nc5c3F)N(C3CC(NC(=O)[C@@H]5N[C@H]5C5CC5)C3)CCO4)c12 (stereo partly drawn) [Compound 1082, (2R,3S)-N-(3-(9-(2-amino-3-cyano-7-fluorobenzo[b]thiophen-4-yl)-8-chloro-10-fluoro-2-(((2R,7aS)-2-fluorotetrahydro-1H-pyrrolizin-7a(5H)-yl)methoxy)-5,6-dihydro-4H-[1,4]oxazepino[5,6,7-de]quinazolin-4-yl)cyclobutyl)-3-cyclopropylaziridine-2-carboxamide] | < 100 nM | < 100 nM | < 5000 nM | < 100 nM | < 5000 nM | < 100 nM
11 | CNC(=O)C1CC(N2CCOc3c(Cl)c(-c4ccc(F)c5sc(N)c(C#N)c45)c(F)c4nc(OC[C@@]56CCCN5C[C@H](F)C6)nc2c34)CCO1 (stereo partly drawn) [Compound 1094, 4-(9-(2-amino-3-cyano-7-fluorobenzo[b]thiophen-4-yl)-8-chloro-10-fluoro-2-(((2R,7aS)-2-fluorotetrahydro-1H-pyrrolizin-7a(5H)-yl)methoxy)-5,6-dihydro-4H-[1,4]oxazepino[5,6,7-de]quinazolin-4-yl)-N-methyltetrahydro-2H-pyran-2-carboxamide] | < 100 nM | < 100 nM | < 5000 nM | < 100 nM | < 5000 nM | < 100 nM
12 | N#Cc1c(N)sc2c(F)ccc(-c3c(Cl)c4c5c(nc(OC[C@@]67CCCN6C[C@H](F)C7)nc5c3F)N(C3CCCCC3)CCO4)c12 [Compound 1116, 2-amino-4-(8-chloro-4-cyclohexyl-10-fluoro-2-(((2R,7aS)-2-fluorotetrahydro-1H-pyrrolizin-7a(5H)-yl)methoxy)-5,6-dihydro-4H-[1,4]oxazepino[5,6,7-de]quinazolin-9-yl)-7-fluorobenzo[b]thiophene-3-carbonitrile] | < 100 nM | < 100 nM | < 5000 nM | < 100 nM | < 5000 nM | < 100 nM
13 | CNC(=O)C1CCC(N2CCOc3c(Cl)c(-c4ccc(F)c5sc(N)c(C#N)c45)c(F)c4nc(OC[C@@]56CCCN5C[C@H](F)C6)nc2c34)CC1 (stereo partly drawn) [Compound 1120, 4-(9-(2-amino-3-cyano-7-fluorobenzo[b]thiophen-4-yl)-8-chloro-10-fluoro-2-(((2R,7aS)-2-fluorotetrahydro-1H-pyrrolizin-7a(5H)-yl)methoxy)-5,6-dihydro-4H-[1,4]oxazepino[5,6,7-de]quinazolin-4-yl)-N-methylcyclohexane-1-carboxamide] | < 100 nM | < 100 nM | < 5000 nM | < 100 nM | < 5000 nM | < 100 nM
